{"source": "patent US6630471B1", "about": "“Substituted triazolo-pyridazine derivative, pharmaceutical compositions made therefrom” (Merck Sharp & Dohme Ltd., priority 1998, dated 2003)", "key": {"[1]": {"assay": "moisture vapour sorption (adsorption/desorption isotherm)", "type": "physicochemical", "experimental": "These moisture vapour sorption studies show formation of a dihydrate above 80% relative humidity (RH) at 25° C. Hysteresis indicative of hydrate formation is seen to occur, with desorption occurring below ca. 60% RH."}, "aqueous solubility": {"assay": "aqueous solubility", "type": "physicochemical", "from_the_text": "This conversion is slow due to the low aqueous solubility of Compound I in relation to the large excess of solid compound slurried."}}, "data": [{"smiles": "CCn1ncnc1COc1nn2c(-c3ccccc3F)nnc2cc1C(C)(C)C", "note": "[Compound I polymorph A, 7-(1,1-Dimethylethyl)-6-(2-ethyl-2H-1,2,4-triazol-3-ylmethoxy)-3-(2-fluorophenyl)-1,2,4-triazolo[4,3-b]pyridazine]", "values": [{"measurement": "relative humidity of dihydrate formation", "setting": "[1]; 25° C., adsorption", "value": "above 80 % relative humidity (RH)"}, {"measurement": "relative humidity of desorption (hysteresis)", "setting": "[1]; 25° C., desorption", "value": "< 60", "unit": "% RH"}]}, {"smiles": "CCn1ncnc1COc1nn2c(-c3ccccc3F)nnc2cc1C(C)(C)C", "note": "[Compound I, 7-(1,1-Dimethylethyl)-6-(2-ethyl-2H-1,2,4-triazol-3-ylmethoxy)-3-(2-fluorophenyl)-1,2,4-triazolo[4,3-b]pyridazine]", "values": [{"measurement": "aqueous solubility", "setting": "aqueous solubility", "value": "low"}]}, {"smiles": "CCn1ncnc1COc1nn2c(-c3ccccc3F)nnc2cc1C(C)(C)C", "note": "[dihydrate of polymorph A, 7-(1,1-Dimethylethyl)-6-(2-ethyl-2H-1,2,4-triazol-3-ylmethoxy)-3-(2-fluorophenyl)-1,2,4-triazolo[4,3-b]pyridazine]", "values": [{"measurement": "stability of the dihydrate", "setting": "[1]; humidity", "value": "stable, but only at elevated humidities"}]}]}
